Results published in PMC9584906, “Cryo-EM structures of thermostabilized prestin provide mechanistic insights underlying outer hair cell electromotility” (Nature Communications, 2022).

Key:
[1] = biological target: T1, HgPres (naked mole-rat prestin) (Heterocephalus glaber, UniProt A0AAX6NYL9); test: whole-cell nonlinear capacitance (NLC); format: cell-based; settings: 10 mM salicylate in bath; HEK293T cells; room temperature; pH 7.3
T1 construct: gene Slc26a5
T1 sequence (A0AAX6NYL9 1-744): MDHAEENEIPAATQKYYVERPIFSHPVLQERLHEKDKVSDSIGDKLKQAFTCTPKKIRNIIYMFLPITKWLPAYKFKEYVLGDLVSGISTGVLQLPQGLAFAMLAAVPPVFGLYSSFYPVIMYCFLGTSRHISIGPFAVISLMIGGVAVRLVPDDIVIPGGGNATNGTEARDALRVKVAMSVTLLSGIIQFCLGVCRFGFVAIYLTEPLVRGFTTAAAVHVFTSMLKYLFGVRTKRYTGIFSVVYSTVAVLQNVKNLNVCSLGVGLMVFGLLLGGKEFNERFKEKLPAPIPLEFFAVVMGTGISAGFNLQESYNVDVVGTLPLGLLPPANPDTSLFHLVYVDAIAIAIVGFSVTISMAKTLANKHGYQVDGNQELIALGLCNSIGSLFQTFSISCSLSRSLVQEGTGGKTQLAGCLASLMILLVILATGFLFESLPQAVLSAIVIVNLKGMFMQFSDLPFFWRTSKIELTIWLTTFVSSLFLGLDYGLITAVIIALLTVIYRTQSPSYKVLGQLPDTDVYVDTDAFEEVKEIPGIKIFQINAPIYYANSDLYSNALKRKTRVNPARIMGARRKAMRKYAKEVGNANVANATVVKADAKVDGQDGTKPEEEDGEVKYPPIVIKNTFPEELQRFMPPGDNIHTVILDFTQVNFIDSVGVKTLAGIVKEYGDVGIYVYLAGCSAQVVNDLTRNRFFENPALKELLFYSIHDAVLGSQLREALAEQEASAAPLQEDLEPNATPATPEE

[2] = biological target: T2, hPres (human prestin, SLC26A5) (Homo sapiens, UniProt P58743); test: isothermal titration calorimetry; format: binding
T2 construct: full-length; C-terminal TEV-FLAG-EGFP tag cleaved off; HEK293S GnTI- (BacMam); digitonin micelles
T2 sequence (P58743 1-744): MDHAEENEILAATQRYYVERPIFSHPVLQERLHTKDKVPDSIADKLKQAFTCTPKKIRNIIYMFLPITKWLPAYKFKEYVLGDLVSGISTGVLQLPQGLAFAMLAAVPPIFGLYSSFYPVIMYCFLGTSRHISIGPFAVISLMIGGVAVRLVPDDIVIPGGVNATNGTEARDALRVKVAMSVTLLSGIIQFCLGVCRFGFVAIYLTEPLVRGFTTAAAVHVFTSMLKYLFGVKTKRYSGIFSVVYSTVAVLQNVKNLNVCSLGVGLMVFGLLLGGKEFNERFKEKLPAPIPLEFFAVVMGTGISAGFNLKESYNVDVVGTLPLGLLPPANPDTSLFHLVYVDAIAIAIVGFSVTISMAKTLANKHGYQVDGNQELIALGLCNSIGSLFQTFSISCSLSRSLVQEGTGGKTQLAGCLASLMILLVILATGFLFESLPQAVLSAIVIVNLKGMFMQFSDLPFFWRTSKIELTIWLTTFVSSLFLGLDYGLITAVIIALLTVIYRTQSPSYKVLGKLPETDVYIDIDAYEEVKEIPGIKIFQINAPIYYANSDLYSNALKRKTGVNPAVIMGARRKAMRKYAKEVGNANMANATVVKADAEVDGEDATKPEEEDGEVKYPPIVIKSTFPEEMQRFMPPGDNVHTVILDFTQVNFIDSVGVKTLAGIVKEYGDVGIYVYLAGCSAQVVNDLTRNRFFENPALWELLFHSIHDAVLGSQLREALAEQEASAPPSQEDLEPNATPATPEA

SMILES: O=C(O)c1ccccc1O [salicylate]
- effect on NLC at 10 mM [1]: The effect of salicylate on the NLC of WT (left) and S398A-HgPres (right)
- Kd [2]: 7.08 mM
